Data: ChEMBL document CHEMBL1629445, “Synthesis and evaluation of azetidinone analogues of combretastatin A-4 as tubulin targeting agents” (J Med Chem, 2010)

What was measured:
MCF7 = experiment: cells; settings: Homo sapiens, MCF7, 72 h
[1] = Growth inhibition of human NCI60 cells; type: functional
MDA-MB-231 = experiment: Antiproliferative activity against human MDA-MB-231 cells after 72 hrs by MTT assay; type: functional, cell-based; settings: MDA-MB-231, 72 h
[2] = Cytotoxicity against in CD1 mouse mammary epithelial cells after 72 hrs by alamar blue dye assay; type: cell-based; settings: CD1, Epithelial cell

Row | SMILES | IC50 (MCF7) | GI50 [1] | IC50 (MDA-MB-231) | IC50 [2]
1 | COc1ccc([C@@H]2[C@@H](c3ccc(OCc4ccccc4)cc3)C(=O)N2c2cc(OC)c(OC)c(OC)c2)cc1 | 7990 nM |  |  | 
2 | COc1ccc([C@@H]2[C@@H](c3ccccc3)C(=O)N2c2cc(OC)c(OC)c(OC)c2)cc1[N+](=O)[O-] | 466 nM |  |  | 
3 | COc1ccc([C@@H]2[C@@H](c3ccc(F)cc3)C(=O)N2c2cc(OC)c(OC)c(OC)c2)cc1[N+](=O)[O-] | 1360 nM |  |  | 
4 | COc1ccc(N2C(=O)[C@H](c3ccccc3)[C@H]2c2cc(OC)c(OC)c(OC)c2)cc1 | 43100 nM |  |  | 
5 | COc1ccc([C@@H]2[C@@H](c3ccccc3)C(=O)N2c2cc(OC)c(OC)c(OC)c2)cc1O | 9.6 nM | 24 nM | 28.8 nM | > 10000 nM
6 | COc1ccc([C@@H]2[C@@H](c3ccc(F)cc3)C(=O)N2c2cc(OC)c(OC)c(OC)c2)cc1O | 65.7 nM |  | 107 nM | 
7 | COc1ccc([C@@H]2[C@@H](c3ccc(O)cc3)C(=O)N2c2cc(OC)c(OC)c(OC)c2)cc1 | 59.1 nM |  | 158 nM | 
8 | COc1ccc([C@@H]2[C@@H](c3cc(OC)c(OC)c(OC)c3)C(=O)N2c2cc(OC)c(OC)c(OC)c2)cc1 | 7120 nM |  |  | 
9 | COc1ccc([C@@H]2[C@@H](c3ccc(F)cc3)C(=O)N2c2cc(OC)c(OC)c(OC)c2)cc1 | 42.3 nM |  | 228 nM | 
10 | COc1ccc([C@@H]2[C@@H](c3ccc(C(F)(F)F)cc3)C(=O)N2c2cc(OC)c(OC)c(OC)c2)cc1 | 1660 nM |  |  | 
11 | COc1ccc([C@@H]2[C@@H](c3ccc(O)cc3)C(=O)N2c2cc(OC)c(OC)c(OC)c2)cc1O | 0.8 nM |  | 176 nM | > 10000 nM
12 | COc1ccc([C@@H]2[C@@H](c3ccc(O)cc3)C(=O)N2c2cc(OC)c(OC)c(OC)c2)cc1N | 39.5 nM |  | 1680 nM | 
13 | COc1ccc([C@@H]2[C@@H](c3ccccc3)C(=O)N2c2cc(OC)c(OC)c(OC)c2)cc1N | 65.3 nM |  | 429 nM | 
14 | COc1ccc([C@@H]2[C@@H](c3ccc(F)cc3)C(=O)N2c2cc(OC)c(OC)c(OC)c2)cc1N | 55.3 nM |  | 80.8 nM | 
15 | COc1ccc([C@@H]2[C@@H](c3ccc(N)cc3)C(=O)N2c2cc(OC)c(OC)c(OC)c2)cc1O | 4.5 nM |  |  | 
16 | COc1ccc([C@@H]2[C@@H](c3ccc(N)cc3)C(=O)N2c2cc(OC)c(OC)c(OC)c2)cc1N | 30.9 nM |  |  | 
17 | COc1ccc([C@@H](Nc2cc(OC)c(OC)c(OC)c2)[C@@H](CO)c2ccccc2)cc1O | 24600 nM |  |  | 
18 | COC(=O)C(c1ccccc1)[C@H](Nc1cc(OC)c(OC)c(OC)c1)c1ccc(OC)c(O)c1 (some centres not stated) | > 100000 nM |  |  | 
19 | COc1ccc(/C=C\c2cc(OC)c(OC)c(OC)c2)cc1O [COMBRETASTATIN A4] | 5.2 nM |  | 43 nM | > 10000 nM

More lines, main results first:

Row | IC50 (MCF7) | SMILES | GI50 [1] | IC50 (MDA-MB-231) | IC50 [2]
20 | 37800 nM | COc1ccc([C@H]2C(=O)N(c3ccccc3)[C@@H]2c2cc(OC)c(OC)c(OC)c2)cc1 |  |  | 
21 | 326 nM | COc1ccc([C@@H]2[C@@H](c3cccc(OC)c3)C(=O)N2c2cc(OC)c(OC)c(OC)c2)cc1 |  |  | 
22 | 182 nM | COc1ccc([C@H]2C(=O)N(c3cc(OC)c(OC)c(OC)c3)[C@@H]2c2ccc(OC)cc2)cc1 | 210 nM |  | 
23 | 223 nM | COc1ccc([C@@H]2[C@@H](c3ccc(OC)c(OC)c3)C(=O)N2c2cc(OC)c(OC)c(OC)c2)cc1 |  |  | 
24 | 305 nM | COc1ccc([C@@H]2[C@@H](c3ccc(Cl)cc3)C(=O)N2c2cc(OC)c(OC)c(OC)c2)cc1 |  |  | 
25 | 486 nM | COc1ccc([C@@H]2[C@@H](c3ccc([N+](=O)[O-])cc3)C(=O)N2c2cc(OC)c(OC)c(OC)c2)cc1 |  |  | 
26 | 43100 nM | COc1ccc([C@@H]2[C@@H](c3cc(OC)c(OC)c(OC)c3)C(=O)N2c2ccccc2)cc1 |  |  | 
27 | 34.4 nM | COc1ccc([C@@H]2[C@@H](c3ccccc3)C(=O)N2c2cc(OC)c(OC)c(OC)c2)cc1 |  | 78.2 nM | 
28 | 68.9 nM | COc1ccc([C@@H]2[C@@H](c3cccc(O)c3)C(=O)N2c2cc(OC)c(OC)c(OC)c2)cc1 |  |  | 
29 | 700 nM | COc1ccc([C@@H]2[C@@H](c3ccccc3OC)C(=O)N2c2cc(OC)c(OC)c(OC)c2)cc1 |  |  | 
30 | 448 nM | COc1ccc([C@@H]2[C@@H](c3ccc(SC)cc3)C(=O)N2c2cc(OC)c(OC)c(OC)c2)cc1 |  |  | 
31 | 315 nM | COc1ccc([C@@H]2[C@@H](c3ccc(C)cc3)C(=O)N2c2cc(OC)c(OC)c(OC)c2)cc1 |  |  | 
32 | 420 nM | COc1ccc([C@@H]2[C@@H](c3ccc(Br)cc3)C(=O)N2c2cc(OC)c(OC)c(OC)c2)cc1 |  |  | 
33 | 3360 nM | COc1ccc([C@@H]2[C@@H](c3ccc(Cl)c(Cl)c3)C(=O)N2c2cc(OC)c(OC)c(OC)c2)cc1 |  |  | 
34 | 314 nM | COc1ccc([C@@H]2[C@@H](c3ccc(F)c(F)c3)C(=O)N2c2cc(OC)c(OC)c(OC)c2)cc1 |  |  | 
35 | 50.8 nM | COc1ccc([C@@H]2[C@@H](c3ccc(N)cc3)C(=O)N2c2cc(OC)c(OC)c(OC)c2)cc1 |  | 224 nM | 
36 | 720 nM | COc1ccc([C@@H]2[C@@H](c3ccccc3)C(=S)N2c2cc(OC)c(OC)c(OC)c2)cc1 |  |  | 
